Consider one molecule from patent US11225465B2, “Albicidin derivatives, their use and synthesis” (TECHNISCHE UNIVERSITÄT BERLIN, priority 2017, dated 2022).

Experiment [1] deals with Escherichia coli ATCC 25922. The settings on record: n.a. for the compounds; cited from earlier work.
The test system of experiment [2] is Pseudomonas aeruginosa ATCC 27853. The settings on record: n.a. for the compounds; cited from earlier work.
For experiment [3], the system named is Staphylococcus aureus ATCC 29213. The settings on record: n.a. for the compounds; cited from earlier work.
Experiment [4] has the same test system. Briefly: MHK against further strains (Table 2). To be noted: Nr. 8 Staphylococcus aureus ATCC 29213; KBE/ml 6.60E+05. The class given is cell-based. The procedure: (§1) The tests were performed using the micro dilution method.
(§2) The determination of MIC values was performed according to the ninth edition of the Approved Standard M07-A9 (CLSI. Methods for Dilution Antimicrobial Susceptibility Tests for Bacteria That Grow Aerobically; Approved Standard—Ninth Edition. CLSI document M07-A9. Wayne, Pa.: Clinical and Laboratory Standards Institute; 2012.)

Experiment [5] relates to Escherichia coli ATCC 25922. Briefly: MHK against further strains (Table 2). The class given is cell-based. To be noted: Nr. 1 Escherichia coli ATCC 25922; KBE/ml 2.80E+05. The procedure:
as §1, §2

The test system of experiment [6] is Pseudomonas aeruginosa ATCC 27853. Description: MHK against further strains (Table 2). The settings on record: Nr. 6 Pseudomonas aeruginosa ATCC 27853; KBE/ml 5.60E+05. Format: cell-based. The protocol:
as §1, §2

As for `O=C(O)c1cn(C2CC2)c2cc(N3CCNCC3)c(F)cc2c1=O` [CIP, reference compound], the figures for the “MHK range (unlabelled line below the ATCC strain)” value in experiment [1], in experiment [2] and in experiment [3] were 0.004 to 0.015 mg/L, 0.25 to 1 mg/L and 0.12 to 0.5 mg/L, respectively. Moreover, the MHK in experiment [4] amounted to 0.5 mg/L; in experiment [5], 0.015 mg/L; in experiment [6] it was 0.5 mg/L.
